Reference: paper PMC12970513, “Unsaturated Phosphorus Electrophiles to Probe Protein Tyrosine Phosphatases” (Angewandte Chemie (International Ed. in English), 2026)

Test system: PTP1B in MCF-7 cell lysate
Assay: Lysate labeling by western blot, MCF-7
Design: species or system human
Conditions: 25–500 µM, 4 h, MCF-7 lysate 4 mg/mL
Protocol: To verify a consistent labeling profile by TMR‐PO, we tested additional PTP1B‐containing mammalian lysates. […] Therefore, we attempted to identify conditions where more intense labeling is noticeable. […] Increasing reaction time led to a proportional increase in biotin‐signal overlapping with the PTP1B band. […] A 4‐h incubation was chosen for the following experiments for ease of protocol and due to the robust labeling observed.
In that respect, following a 4‐h incubation time, we tested increasing concentrations of bio‐PO up to 500 µM to further increase the labeling efficiency. […] This highlights that labeling is also consistent with the abundance of PTP1B in these cell lines, which was measured by quantitative proteomics (Figure 5b). […]
For western blot analysis, samples resolved by SDS-PAGE were transferred to a polyvinylidene difluoride (PVDF) membrane using a Trans-Blot Turbo (Bio-Rad) semi dry blotting system according to the manufacturer`s instructions. […] The HRP signal was detected using the Pierce ECL Western Blotting Substrate (ThermoFisher Scientific) and imaged using the ChemiDoc (Bio-Rad) imaging system. […] Biotin was probed against using Streptavidin-horse radish peroxidase (HRP) conjugate (Thermo Fisher Scientific, N100) at a 1:5000 dilution for 1 hour at room temperature and the HRP signal was detected as mentioned above. […]

| Structure (SMILES) | labeling of MCF-7 lysate by small molecule control SM-PN | labeling of MCF-7 lysate by small molecule control SM-PO |
| --- | --- | --- |
| C#CP(=O)(O)Nc1ccc(CCNC(=O)CCCC[C@@H]2SC[C@@H]3NC(=O)N[C@@H]32)cc1 [SM-PN, N-(4-(2-biotinamidoethyl)phenyl)-P-ethynylphosphonamidic acid] | No labeling was observed |  |
| C#CP(=O)(O)Oc1ccc(CCNC(=O)CCCC[C@@H]2SC[C@@H]3NC(=O)N[C@@H]32)cc1 [SM-PO, 4-(2-biotinamidoethyl)phenyl ethynylphosphonic acid monoester] |  | a band with increasing intensity was apparent in the biotin signal upon concentration increase |
